Reference: patent US12629406B2, “Alterations in endothelin receptors following hemorrhage and resuscitation by centhaquin” (MIDWESTERN UNIVERSITY, priority 2018, dated 2026)

Assay: Rat hemorrhagic shock, normal saline resuscitation: blood gases, hematocrit, lactate, MAP
Format: in vivo
Protocol: Animal Studies. Male Sprague-Dawley rats (340 to 380 g) (Envigo, Indianapolis, IN) were housed for at least 4 days in a room with controlled temperature (23±1° C.), humidity (50±10%) and light (6:00 A.M. to 6:00 P.M.) before being used. Food and water were made available continuously. Animal care and use for experimental procedures were approved by the Institutional Animal Care and Use Committee of the Midwestern University. All anesthetic and surgical procedures were in compliance with the guidelines established by the Animal Care Committee.
Determination of cardiovascular response. The animals were anesthetized with urethane dissolved in isotonic saline. Urethane was administered in a dose of 1.5 g per kg body weight via intraperitoneal injection. Urethane was selected as an anesthetic agent, because it produces long lasting (8-10 hours) anesthesia with minimal cardiovascular and respiratory system depression. It produces a level of surgical anesthesia characterized by preservation of cardiovascular reflexes (Maggi and Meli 1986). Briefly, anaesthetized rats were immobilized on a surgical board equipped with controlled heating pad. Blood PO2, Pco2 and pH, were maintained using a tracheotomy cannula connected to a rodent ventilator (Model 683, Harvard Apparatus Inc., Holliston, MA). MAP and HR were measured by cannulating the left femoral artery with pressure catheter SPR-320 (Millar Instruments), connected to the ML221 bridge amplifier (AD Instruments) through AEC-10C connector and the signals were acquired (1000 S^−1) using PowerLab 16/30 data acquisition system (Gulati et al. 2012; Pacher et al. 2008). A Perimed laser Doppler flow probe was placed in the renal medulla to measure blood perfusion and data was captured on PowerLab 16/30 data acquisition system. The left femoral vein was cannulated using PE 50 tubing (Clay Adams, Parsipanny, NJ) and secured for resuscitation.
Determination of arterial blood gases and base deficit. Baseline arterial blood pH, PO2, Pco2, Na^+, K^+ and lactate were monitored prior to induction of shock, 30 minutes after induction of shock, and 30 and 60 minutes following vehicle or centhaquin resuscitation. Blood samples (0.15 ml) were drawn from the arterial cannula using blood gas sampling syringes (Innovative Medical Technologies, Inc. Leawood, KS) and analyzed using a pHOx Ultra analyzer (Nova Biomedical Corporation, Waltham, MA). The base deficit was calculated using the formula (Davis et al. 1998; Paladino et al. 2008): SBD=0.9287×[HCO3^−−24.4+14.83×(pH-7.4)]
Induction of Hemorrhagic Shock. Hemorrhage was induced by withdrawing blood from the femoral artery at a rate of approximately 0.5 to 1 mL/min until a MAP of 35 mmHg was reached. This MAP was maintained for 30 minutes by further withdrawal of blood, if necessary. The hemorrhagic shock model used in the present study is a well-established rodent model of manageable pressure hemorrhage (Buehler et al. 2000; Gulati et al. 1997; Gulati and Sen 1998). The volume of blood loss was about approximately 8.0 ml in each rat and was similar in various groups, amounting to approximately 40% of the total blood. Measured hematocrit levels were similar in various groups. […]
Experimental design. […] Additional experiments were also carried out where the amount of norepinephrine (a very commonly used vasopressor during resuscitation) required to maintain MAP at 70 mmHg in normal saline (NS) or centhaquin (0.01 mg/kg) treated rats (volume equal to blood loss) was determined. […]

For `Cc1cccc(N2CCN(CCc3ccc4ccccc4n3)CC2)c1` [centhaquin, 2-[2-(4-(3-methyphenyl)-1-piperazinyl)]ethyl-quinoline], the “effect on blood pH of hemorrhaged rats” value (centhaquin 0.01 and 0.10 mg/kg in normal saline) was “significantly prevented the reduction of pH”, the MAP post resuscitation (centhaquin 0.01 and 0.10 mg/kg, p<0.01) was “significant increase” and the “blood lactate levels compared to the saline group” value (normal saline model) was “decrease”. The “change in hematocrit after treatment” value (normal saline model) was “no change” and the “effect on hemorrhage-induced decrease in pCO2 and increase in pO2” value (resuscitation with centhaquin in normal saline) was “not affected”.
